According to PMC5207132, “New Insights into the Cyclic Di-adenosine Monophosphate (c-di-AMP) Degradation Pathway and the Requirement of the Cyclic Dinucleotide for Acid Stress Resistance in Staphylococcus aureus” (The Journal of Biological Chemistry, 2016):

Key:
Pde2 = target: T1, Pde2 (Staphylococcus aureus, UniProt A0A0H2XFX6); test: radiolabelled pApA hydrolysis, TLC; assay type: biochemical
T1 construct: gene SAUSA300_1650

GdpP = target: T2, GdpP (Staphylococcus aureus, UniProt A0A0H2XJV8); test: radiolabelled c-di-AMP hydrolysis, TLC; assay type: biochemical
T2 construct: gene SAUSA300_0014
T2 sequence (A0A0H2XJV8 entry or part of it): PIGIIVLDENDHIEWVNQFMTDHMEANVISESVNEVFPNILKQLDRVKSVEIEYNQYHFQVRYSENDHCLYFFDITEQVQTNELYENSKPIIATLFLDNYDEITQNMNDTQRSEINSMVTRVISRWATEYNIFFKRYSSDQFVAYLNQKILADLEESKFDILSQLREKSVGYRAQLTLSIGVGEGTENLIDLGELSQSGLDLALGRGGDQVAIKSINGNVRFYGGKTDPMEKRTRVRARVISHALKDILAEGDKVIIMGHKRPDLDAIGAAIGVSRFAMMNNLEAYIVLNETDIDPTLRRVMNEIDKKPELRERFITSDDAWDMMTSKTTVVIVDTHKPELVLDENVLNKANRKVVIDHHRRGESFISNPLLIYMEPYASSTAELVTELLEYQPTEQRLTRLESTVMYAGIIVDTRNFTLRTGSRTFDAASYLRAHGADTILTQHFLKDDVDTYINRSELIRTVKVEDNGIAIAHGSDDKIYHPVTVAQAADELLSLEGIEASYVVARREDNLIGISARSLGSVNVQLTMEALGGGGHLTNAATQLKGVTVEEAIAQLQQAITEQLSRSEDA

T1 sequence (A0A0H2XFX6 entry or part of it): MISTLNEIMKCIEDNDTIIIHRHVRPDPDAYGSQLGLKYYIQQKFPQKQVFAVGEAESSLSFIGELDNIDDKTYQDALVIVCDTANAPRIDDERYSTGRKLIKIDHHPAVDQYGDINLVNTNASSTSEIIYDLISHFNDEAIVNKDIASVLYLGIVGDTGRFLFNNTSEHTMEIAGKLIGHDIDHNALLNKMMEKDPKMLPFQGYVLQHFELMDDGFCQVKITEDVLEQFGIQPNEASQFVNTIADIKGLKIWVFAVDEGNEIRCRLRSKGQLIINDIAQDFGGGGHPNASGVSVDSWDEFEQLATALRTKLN

Row | Compound | IC50 (Pde2) [µM] | IC50 (GdpP) [µM]
1 | Nc1nc2c(ncn2[C@@H]2O[C@H](COP(=O)(O)OP(=O)(O)O)[C@@H](OP(=O)(O)OP(=O)(O)O)[C@H]2O)c(=O)[nH]1 [ppGpp] | 139 ± 5.6 | –
2 | Nc1ncnc2c1ncn2[C@@H]1O[C@H](COP(=O)(O)O[C@H]2[C@@H](O)[C@H](n3cnc4c(N)ncnc43)O[C@@H]2COP(=O)(O)O)[C@@H](O)[C@H]1O [pApA] | – | 78 ± 2.34
